# From ChEMBL document CHEMBL1212750, “Continuous clindamycin infusion, an innovative approach to treating bone and joint infections” (Antimicrob Agents Chemother, 2010)
# Active and inactive are the calls of the source. The calls are words filed in the database; no cut-off is given here.
# Key:
# Serum [1] = assay: Drug level in bone/joint infection patient serum assessed as median concentration at 2400 mg, iv after 8 to 28 days; format: ADME, organism-based; settings: human, in vivo
# Serum [2] = assay: Drug level in bone/joint infection patient serum assessed as median concentration at 2400 mg, iv after 3 to 14 days; format: ADME, organism-based; settings: human, in vivo
# Staphylococcus aureus [3] = assay: Antimicrobial activity against Staphylococcus aureus infection in human assessed as curing from bone/joint infection at 600 mg, iv followed by 30 to 40 mg/kg of body weight, iv followed by oral regimen upto 30 months; format: functional, organism-based
# [4] = Cmax po dosed in human co-treated with rifampin; format: ADME, organism-based; set-up: route oral; settings: in vivo
# Staphylococcus aureus [5] = assay: Antimicrobial activity against Staphylococcus aureus SJ11617; format: functional
Compound,Drug uptake (Serum [1]),Drug uptake (Serum [2]),Activity (Staphylococcus aureus [3]),Cmax [4],MIC (Staphylococcus aureus [5])
CCC[C@@H]1C[C@@H](C(=O)N[C@@H]([C@H]2O[C@H](SC)[C@H](O)[C@@H](O)[C@H]2O)[C@H](C)Cl)N(C)C1 [CLINDAMYCIN],6.2 mg/L,5 mg/L,Active,< 2500 ng/mL,
C[C@@H]1O[C@@H]1P(=O)(O)O [FOSFOMYCIN],,,,,> 512 µg/mL
CO[C@H]1/C=C/O[C@@]2(C)Oc3c(C)c(O)c4c(O)c(c(/C=N/N5CCN(C)CC5)c(O)c4c3C2=O)NC(=O)/C(C)=C\C=C\[C@H](C)[C@H](O)[C@@H](C)[C@@H](O)[C@@H](C)[C@H](OC(C)=O)[C@@H]1C [RIFAMPIN],,,,,> 128 µg/mL
CC(=O)O[C@H]1C[C@@]2(C)[C@@H](C[C@@H](O)[C@H]3[C@@]4(C)CC[C@@H](O)[C@@H](C)[C@@H]4CC[C@@]32C)/C1=C(\CCC=C(C)C)C(=O)O [FUSIDIC ACID],,,,,> 256 µg/mL
